US6281211A, “Substituted semicarbazides and the use thereof” (Euro-Celtique S.A., priority 2000, dated 2001)
Read-outs that look alike come from different tables or passages of the source.

What was measured:
[1] = tested on: maximal electroshock-induced seizures (MES); assay: maximal electroshock-induced seizures (MES) test in mice; assay type: in vivo; settings: Mus musculus
Experimental: The compounds of the present invention may be tested for in vivo anticonvulsant activity after iv. po or ip injection using a number of anticonvulsant tests in mice (audiogenic seizure model in DBA-2 mice, pentylenetetrazol-induced seizures in mice, maximum electroshock seizure test (MES)).
The ability of 1-[4-(4-fluorophenoxy)benzyl]semicarbazide to block maximal electroshock-induced seizures (MES) was determined by the following procedure.
Seizures were induced by application of current (50 mA, 60 pulses/sec, 0.8 msec pulse width, 1 sec duration, D.C.) using a Ugo Basile ECT device (model 7801). Mice were restrained by gripping the loose skin on their dorsal surface and saline-coated corneal electrodes were held lightly against the two cornea. […] A tonic seizure was defined as a hindlimb extension in excess of 90 degrees from plane of the body.
1-[4-(4-Fluorophenoxy)benzyl]semicarbazide was administered iv to mice 10 min before the test procedure.

[2] = target: T1, hSkM1 sodium channels (Homo sapiens, UniProt P35499); assay: Electrophysiological assay: whole-cell patch-clamp recordings of voltage-gated Na+ currents in HEK-293 cells stably expressing hSkM1; assay type: cell-based
T1 construct: expressed in transfected cells
Experimental: Electrophysiological Assay:
Cellpreparation: HEK-293 cells stably expressing the hSkM1 isoform of Na^+ channels (generous gift from Dr. A. L. George, Vanderbilt University Medical School) were cultured using standard techniques, as described previously (Verdoorn, T. A, et al., Neuron 4:919-928 (1990)). For electrophysiology, cells were plated onto 35 mm Petri dishes (pre-coated with poly-D-lysine) at a density of 1:40 on the day of re-seeding from confluent cultures. Cells are suitable for recordings for 2-3 days after plating.
Patch-clamp recordings of voltage-sensitive Na^+ currents: Whole-cell voltage-clamp recordings were made using conventional patch-clamp techniques (Hamill et al, Pfluegers Arch. 391:85-100 (1981)) with an Axopatch 200 A amplifier (Axon Instruments, Foster City, Calif.). Recordings were made within 2-3 hours after neuron dissociation. The recording chamber was continuously superfused with the external solution (150 mM NaCl, 5.4 mM KCl, 1.8 mM CaCl2, 1 mM MgCl2, 10 mM HEPES, 10 mM glucose, pH 7.4 (NaOH)) at a speed of about 1 ml/min. Recording pipettes were pulled from thick-walled capillaries (WPI, Sarasota, Fla.) and fire-polished. The pipette resistances ranged from 1 to 3 M.OMEGA. when the pipettes were filled with internal solution containing (in mM): 110 CsF, 10 NaCl, 5 MgCl2, 11 EGTA, 10 HEPES, pH adjusted to 7.4 with CsOH. Osmolality was set with a difference of 15-20 mmol/kg between external and internal solutions (lower inside the cell). Drugs and intervening wash-outs were applied through a linear array of flow pipes (Drummond Microcaps, 2-μl, 64-mm length). Compounds are dissolved in dimethylsulfoxide (DMSO) to make a […] stock solution, which was subsequently diluted into the external solution to give final concentrations of 0.1-100 μM. At the highest (1%) concentration, DMSO inhibited the size of Na^+ current only slightly. Currents were recorded at room temperature (22-25° C.), filtered at 5 kHz with an active 8-pole Bessel filter (Frequency Devices, Haverhill, Mass.), digitized at 10-50-μs intervals, and stored using Digidata 1200 analog/digital interface with Pclamp6/Clampex software (Axon Instruments).Series resistance was cancelled typically by ~75% when necessary. The inhibitory potency of drugs was assessed by measuring reductions in the peak amplitude of Na^+ currents induced by increasing concentrations of compounds tested. Na^+ currents were elicited by stepping membrane voltage from holding potentials over the range -100 mV to -50 mV, to a pulse potential of -10 mV. The test pulse duration was 5-10 msec, repeated at a frequency ≤1 Hz. Concentration-inhibition curves were fitted with equation 1:
I/Icontrol =1/(1+([compound]/IC50)) Eq. 1 […]

[3] = tested on: global and focal ischemia; settings: animal models of global and focal ischemia; cited from earlier work
[4] = tested on: ALS; settings: subset of patients with ALS; cited from earlier work
[5] = HEK-293 cells stably expressing hSkM1

T1 sequence (P35499 whole entry): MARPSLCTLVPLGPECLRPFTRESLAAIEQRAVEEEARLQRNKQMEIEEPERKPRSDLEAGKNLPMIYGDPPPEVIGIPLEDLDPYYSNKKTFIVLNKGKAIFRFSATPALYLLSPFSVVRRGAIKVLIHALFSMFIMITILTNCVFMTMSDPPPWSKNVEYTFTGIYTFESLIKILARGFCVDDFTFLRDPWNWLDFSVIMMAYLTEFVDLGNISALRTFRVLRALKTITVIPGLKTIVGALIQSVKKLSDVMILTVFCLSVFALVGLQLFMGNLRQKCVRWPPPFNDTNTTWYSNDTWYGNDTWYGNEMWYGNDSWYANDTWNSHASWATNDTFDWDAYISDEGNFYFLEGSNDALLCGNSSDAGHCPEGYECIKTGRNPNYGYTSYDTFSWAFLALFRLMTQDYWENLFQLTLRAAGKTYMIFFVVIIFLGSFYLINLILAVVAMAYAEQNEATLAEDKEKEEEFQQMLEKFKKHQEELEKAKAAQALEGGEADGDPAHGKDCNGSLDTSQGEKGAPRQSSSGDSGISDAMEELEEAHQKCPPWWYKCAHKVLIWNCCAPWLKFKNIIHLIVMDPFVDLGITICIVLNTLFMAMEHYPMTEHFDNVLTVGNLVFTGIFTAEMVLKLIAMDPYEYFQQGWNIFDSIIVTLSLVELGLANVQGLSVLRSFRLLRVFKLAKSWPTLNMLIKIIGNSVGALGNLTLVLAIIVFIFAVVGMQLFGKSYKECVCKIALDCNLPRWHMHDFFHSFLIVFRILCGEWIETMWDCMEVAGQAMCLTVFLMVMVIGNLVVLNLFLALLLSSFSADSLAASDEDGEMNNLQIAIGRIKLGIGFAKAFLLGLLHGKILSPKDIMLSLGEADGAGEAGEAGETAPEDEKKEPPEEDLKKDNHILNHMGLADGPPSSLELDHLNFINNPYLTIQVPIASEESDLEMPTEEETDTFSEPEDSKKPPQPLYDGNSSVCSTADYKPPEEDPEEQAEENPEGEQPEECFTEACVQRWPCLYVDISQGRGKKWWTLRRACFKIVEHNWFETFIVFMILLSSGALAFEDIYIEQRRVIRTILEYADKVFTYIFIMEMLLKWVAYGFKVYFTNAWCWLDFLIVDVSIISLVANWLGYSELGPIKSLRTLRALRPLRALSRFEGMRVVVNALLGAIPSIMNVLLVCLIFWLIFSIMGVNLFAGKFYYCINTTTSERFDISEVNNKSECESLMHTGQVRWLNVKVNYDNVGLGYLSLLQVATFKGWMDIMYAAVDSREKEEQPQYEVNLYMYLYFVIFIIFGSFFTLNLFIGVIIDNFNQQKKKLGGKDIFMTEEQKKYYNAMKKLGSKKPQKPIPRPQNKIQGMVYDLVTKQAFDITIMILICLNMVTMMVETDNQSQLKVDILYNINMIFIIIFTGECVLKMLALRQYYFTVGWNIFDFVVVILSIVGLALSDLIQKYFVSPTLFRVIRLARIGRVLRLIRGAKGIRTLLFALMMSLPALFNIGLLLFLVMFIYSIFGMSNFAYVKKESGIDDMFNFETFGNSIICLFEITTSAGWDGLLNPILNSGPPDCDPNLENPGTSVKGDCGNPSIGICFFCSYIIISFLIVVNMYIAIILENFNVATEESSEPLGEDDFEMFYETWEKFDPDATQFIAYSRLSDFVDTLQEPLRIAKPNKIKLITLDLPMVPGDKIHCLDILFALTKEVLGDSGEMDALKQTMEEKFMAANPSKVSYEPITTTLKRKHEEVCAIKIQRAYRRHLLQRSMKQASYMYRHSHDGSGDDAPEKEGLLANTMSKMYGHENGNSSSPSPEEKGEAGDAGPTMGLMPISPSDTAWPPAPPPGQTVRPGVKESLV

With `NC(=O)NNCc1ccc(Oc2ccc(F)cc2)c(F)c1` [1-[3-Fluoro-4-(4-fluorophenoxy)benzyl]semicarbazide] the ED50 ([1]; po, read-out: ED50 against MES) was 3.2 mg/kg.

In the case of `NC(=O)NNCc1ccc(Oc2ccc(F)cc2)cc1` [1-[4-(4-Fluorophenoxy)benzyl]semicarbazide], the ED50 ([1]; 10 min, iv, 10 min before the test, read-out: ED50 (the dose protecting 50% of animals) against MES) is reported as 4.2 mg/kg, the “inhibition of voltage-gated sodium currents” value [2, 5] is reported as “dose-dependent inhibition” and the “sensitivity of blocking effect on Na+ currents to the holding voltage” value [2, 5] is reported as “highly sensitive to the holding voltage”. For the same compound, the Kd ([2]; inactivated sodium channels, read-out: apparent antagonist dissociation constant (Kd) for inactivated sodium channels) was about 7.5 µM and the “potency towards Na+ channels in their resting states” value ([2]; resting states) was “weak potency”.

In the case of `CN1CCN(c2ncc(-c3cc(Cl)cc(Cl)c3Cl)c(N)n2)CC1` [BW619C89], the neuroprotective activity [3] is listed as “neuroprotective”.

In the case of `Cc1ccc(-c2nc(C)c(CN3CCN(C(c4ccccc4)c4ccccc4)CC3)[nH]2)cc1` [lifarizine], the neuroprotective activity [3] is given as “neuroprotective”.

For `Nc1nc2ccc(OC(F)(F)F)cc2s1` [riluzole], the survival [4] is listed as “prolong survival”.
